According to patent US20240425607A1, “IL-18BP ANTAGONIST ANTIBODIES AND THEIR USE IN MONOTHERAPY AND COMBINATION THERAPY IN THE TREATMENT OF CANCER” (Compugen Ltd., priority 2023, published 2024):

Tests used:
[1] = system: tumor infiltrating lymphocytes (TILs) co-cultured with MEL624 cells; assay: rhIL-18 titration in TIL:MEL624 co-culture; assay type: cell-based, human; details: 24 hr
Experimental: Human MEL624 cells were thawed and grown in DMEM with 10% FBS, 1% Glutamax, 1% Penicillin-Streptomycin Solution and 1% HEPES buffer. The cells were then seeded at 75 k cells/well in a 96 well plate in the assay medium (IMDM with 10% human serum, 1% Glutamax, 1% MEM eagle, 1% Sodium Pyruvate and 1% Penicillin-Streptomycin Solution) and incubated 1 hour in 37° C., 5% CO2 incubator before co-culture with human tumor infiltrating lymphocytes that were previously expanded using known melanoma antigens (TILs). Human TILs were thawed in full TIL media and 75 k cells/well were co-cultured with the MEL624 cells to create an effector: target ratio of 1:1. The co-cultured cells were then treated with rhIL-18 (1.23-300 ng/ml). Cells and all added solutions were prepared in full assay medium to a final volume of 200 μl/well. Plates were incubated for 24 hours in 37° C., 5% CO2 incubator, after which the supernatant was collected for cytokine secretion evaluation. All tests were done in triplicates.

[2] = system: MC38ova tumor-bearing mice; assay: Peripheral effects in MC38ova tumor-bearing mice: anti-mIL18BP vs engineered mIL-18; assay type: in vivo; details: single dose, varying concentrations of IL-15
Experimental: Nine days pre-inoculum, vials of MC38ova^dim cells were thawed into RPMI media containing 10% FBS, 1% Glutamax, 1% Sodium pyruvate, 1% HEPES, 1% NEAA, 0.01% 2-mercaptoethanol, 1% Penicillin-Streptomycin. Following centrifugation at 300×g for 8 min, cell pellet was resuspended, counted and seeded in a T175 flask. On days −7, −5 and −2, the cells were detached and re-seeded at 6-8*10^6 cells/T175 flask. On the day of inoculum, the cells were detached, centrifuged at 300×g for 10 min, filtered through […] cell strainer and resuspended in RPMI.
Experiments were performed in C57Bl/6 (female, 6-8 wk, Envigo). Mice were anesthetized with 10% Ketamine and 10% Xylazine mixture injected intraperitoneal. Next, mice were inoculated with MC38ova cells (1.2×10^6) subcutaneously to the right flank in 50 μl/mice.
At tumor volume of −120 mm^3 (day 9), mice were randomly assigned into treatment groups. Mice were treated with Synagis mouse IgG1, k isotype control 15 mg/kg (IP), anti-mIL18 bp 837 mIgG1 15 mg/kg (IP), PBS (SC), or engineered IL-18 (SC) 0.32 mg/kg. Treatments were injected twice a week for a total of 6 treatments. […] Mice were weighed every week. Mice were bled before the 4th treatment, 4 hours after the 4th treatment, and 24 hours after the 4th treatment. Serum was analyzed for presence of IFNg, TNFα, MCP1, IL6 by Cytometric Bead Array (CBA) Mouse Inflammation Kit (BD Cat. No. 552364). […]

| Substance | Concentration at saturation of IFNγ secretion [1] | Concentration that activates TILs (IFNγ secretion) [1] | Spleens of mice treated with IL-15 vs controls [2] |
| --- | --- | --- | --- |
| rhIL-18: recombinant human IL-18 (R&D systems) | ~100 ng/mL | > 1 ng/mL | – |
| IL-15: recombinant IL15 given to mice as comparator cytokine [reference compound] | – | – | larger than controls |
